From patent publication US11576900B2, “Compositions and methods of reducing serum cholesterol and PCSK9” (CASE WESTERN RESERVE UNIVERSITY, priority 2017, dated 2023)

Key:
[1] = Total serum cholesterol in CETP/ApoB100 transgenic mice on in-diet imirestat; type: in vivo; settings: CETP/ApoB100 transgenic male mice, FIG. 13
Description: AKR1A1^−/− mice were generated by Deltagen, Inc. C57BL6/J and ApoE^−/− mice were purchased from The Jackson Laboratory. CETP-ApoB100 transgenic mice were purchased from Taconic Biosciences. All mice were maintained under a 12-hour light/dark cycle. For imirestat treatment studies, mice were provided control chow or chow containing 0.0125% w/w imirestat (125 mg imirestat/1 kg chow) ad libitum. […]
Prior to euthanasia, mice were fasted for the indicated length of time. […] Collected blood was allowed to coagulate for 20 minutes at room temperature in a pediatric serum separator tube. Serum was separated by centrifugation at 2000 g for 20 minutes at 4° C. Serum was stored at −80° C. until analysis. For overnight fasted 12-week-old AKR1A1^−/− mice (FIG. 5), whole blood was provided to University Hospitals' Clinical Laboratory (Cleveland, Ohio) for cholesterol analysis. […]
(§1) Total serum cholesterol was determined by standard enzymatic assays. For lipoprotein cholesterol quantification, lipoprotein fractions were separated by gel filtration column chromatography. Approximately 70 fractions were collected and cholesterol in each fraction was quantified by standard enzymatic assays. Calibration of the column with purified lipoprotein fractions permitted quantification of cholesterol in various lipoprotein classes. Serum PCSK9 was quantified by solid phase sandwich ELISA.

[2] = biological target: T1, human AKR1A1 (Homo sapiens, UniProt P14550); assay: AKR1A1 SNO-CoA reductase activity assay (recombinant enzyme); type: biochemical; settings: 200 nM recombinant AKR1A1, 100 μM NADPH, 100 μM SNO-CoA; FIG. 5; read-out: IC50 for inhibition of AKR1A1 SNO-CoA Reductase Activity
T1 construct: His; made in house; host or cells: Rosetta2(DE3)pLysS E. coli
T1 sequence (P14550 1-325): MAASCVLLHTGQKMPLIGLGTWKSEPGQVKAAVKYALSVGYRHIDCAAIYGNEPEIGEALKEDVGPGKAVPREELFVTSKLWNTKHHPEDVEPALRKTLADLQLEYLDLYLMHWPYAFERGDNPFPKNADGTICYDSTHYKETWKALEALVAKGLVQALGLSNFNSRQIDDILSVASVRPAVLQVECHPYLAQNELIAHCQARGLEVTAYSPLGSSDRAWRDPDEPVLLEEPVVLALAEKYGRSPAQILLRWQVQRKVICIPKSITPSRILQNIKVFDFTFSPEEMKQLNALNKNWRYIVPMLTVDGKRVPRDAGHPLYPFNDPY
Description: The human AKR1A1 coding sequence was cloned into a pET21b bacterial expression vector. pET21b-AKR1A1 was transformed into Rosetta2(DE3)pLysS E. coli and expression was induced by the addition of 100 μM isopropyl-β-D-1-thiogalactopyranoside at A600nm=0.4. Bacteria were grown for 4 hours at 25° C. and recombinant His-tagged SCoR was purified via Ni-affinity purification. Triplicate reactions were performed with 200 nM recombinant AKR1A1, 100 μM NADPH, 100 μM SNO-CoA, and increasing concentrations of imirestat dissolved in dimethyl sulfoxide (DMSO). SNO-CoA was prepared by reacting equal volumes of 0.1M CoA in 1M HCl and 0.1M NaNO2 water containing 100 μM EDTA and 100 μM DTPA. Initial rates were calculated using absorbance decrease at 340 nm. IC50 was calculated in GraphPad Prism 7 using non-linear regression analysis. For AKR1A1 liver activity following in-diet imirestat treatment, frozen liver tissue was dounce homogenized (30 dounces) in 50 mM phosphate buffer, pH 7.0 supplemented with 100 μM ethylenediaminetetraacetic acid (EDTA) and diethylenetriamine pentaacetate (DTPA) and 150 mM sodium chloride. […] Reactions were initiated by the addition of liver lysate and specific activity was calculated from the change in absorbance at 340 nm, protein concentration, and an extinction coefficient of 7.06 mM^−1·cm^−1 (combined for SNO-CoA and NADPH).

[3] = tested on: PCSK9; assay: Serum PCSK9 levels in C57BL6J mice on in-diet imirestat (ELISA); type: in vivo; settings: C57BL6J 24 week old male mice, 4 weeks in-diet Imirestat; FIG. 8
Description: (§2) AKR1A1^−/− mice were generated by Deltagen, Inc. C57BL6/J and ApoE^−/− mice were purchased from The Jackson Laboratory. CETP-ApoB100 transgenic mice were purchased from Taconic Biosciences. All mice were maintained under a 12-hour light/dark cycle. For imirestat treatment studies, mice were provided control chow or chow containing 0.0125% w/w imirestat (125 mg imirestat/1 kg chow) ad libitum. C57BL6/J and ApoE^−/− mice were provided control chow or imirestat chow for 4 weeks starting at age 20 weeks; CETP-ApoB100 transgenic mice were provided control chow or imirestat chow for 8 weeks starting at age 10 weeks.
(§3) Prior to euthanasia, mice were fasted for the indicated length of time. […] Collected blood was allowed to coagulate for 20 minutes at room temperature in a pediatric serum separator tube. Serum was separated by centrifugation at 2000 g for 20 minutes at 4° C. […]
as §1

[4] = Cholesterol fractionation in ApoE deficient mice on in-diet imirestat; type: in vivo; settings: ApoE deficient 24 week old male mice, 4 weeks in-diet Imirestat; FIG. 11
Description: as §2, §3, §1

[5] = biological target: T2, AKR1A1 (Mus musculus, UniProt Q9JII6); assay: SNO-CoA reductase activity in liver lysate of C57BL6J mice after in-diet imirestat; type: in vivo; settings: C57BL6J 24 week old male mice, 4 weeks in-diet Imirestat; FIG. 9
T2 construct: For AKR1A1 liver activity following in-diet imirestat treatment, frozen liver tissue was dounce homogenized; from tissue; host or cells: liver of C57BL6/J mice (clarified lysate)
T2 sequence (Q9JII6 1-325): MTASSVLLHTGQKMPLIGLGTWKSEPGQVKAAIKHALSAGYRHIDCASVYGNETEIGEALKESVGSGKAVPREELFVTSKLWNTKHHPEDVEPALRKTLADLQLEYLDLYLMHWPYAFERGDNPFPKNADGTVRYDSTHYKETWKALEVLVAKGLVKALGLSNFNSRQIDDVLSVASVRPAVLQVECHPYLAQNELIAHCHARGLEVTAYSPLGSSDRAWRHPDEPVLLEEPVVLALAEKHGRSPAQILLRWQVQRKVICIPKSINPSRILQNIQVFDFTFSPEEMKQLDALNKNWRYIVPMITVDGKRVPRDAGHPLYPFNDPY
Description: as §2
Prior to euthanasia, mice were fasted for the indicated length of time. […]
The human AKR1A1 coding sequence was cloned into a pET21b bacterial expression vector. pET21b-AKR1A1 was transformed into Rosetta2(DE3)pLysS E. coli and expression was induced by the addition of 100 μM isopropyl-β-D-1-thiogalactopyranoside at A600nm=0.4. […] Initial rates were calculated using absorbance decrease at 340 nm. IC50 was calculated in GraphPad Prism 7 using non-linear regression analysis. […] Reactions were initiated by the addition of liver lysate and specific activity was calculated from the change in absorbance at 340 nm, protein concentration, and an extinction coefficient of 7.06 mM^−1·cm^−1 (combined for SNO-CoA and NADPH).

[6] = Total serum cholesterol in C57BL6J mice on in-diet imirestat; type: in vivo; settings: C57BL6J 24 week old male mice, 4 weeks in-diet Imirestat (0.0125% w/w chow); FIG. 6
Description: as §2, §3, §1

[7] = tested on: PCSK9; assay: Serum PCSK9 levels in ApoE deficient mice on in-diet imirestat (ELISA); type: in vivo; settings: ApoE deficient 24 week old male mice, 4 weeks in-diet Imirestat; FIG. 12
Description: as §2, §3, §1

[8] = Total serum cholesterol in ApoE deficient mice on in-diet imirestat; type: in vivo; settings: ApoE deficient 24 week old male mice, 4 weeks in-diet Imirestat; FIG. 10
Description: as §2, §3, §1

[9] = Cholesterol fractionation in C57BL6J mice on in-diet imirestat; type: in vivo; settings: C57BL6J 24 week old male mice, 4 weeks in-diet Imirestat; FIG. 7
Description: as §2, §3, §1

SMILES: O=C1NC(=O)C2(N1)c1cc(F)ccc1-c1ccc(F)cc12 [Imirestat, 2,7-Difluoro-2′H,5′H-spiro[fluorene-9,4′-imidazolidine]-2′,5′-dione]
- total serum cholesterol vs control [1]: lower total serum cholesterol
- IC50 [2]: ~120 nM
- serum PCSK9 levels vs control [3]: lower total serum PCSK9 levels
- cholesterol fractionation vs control [4]: reduced total serum cholesterol
- SNO-CoA Reductase activity in liver (AKR1A1 liver activity) vs control [5]: lower AKR1A1 liver activity
- total serum cholesterol vs control [6]: lower total serum cholesterol
- serum PCSK9 levels vs control [7]: lower total serum PCSK9 levels
- total serum cholesterol vs control [8]: lower total serum cholesterol
- cholesterol fractionation vs control [9]: reduced total serum cholesterol
